Measurements as given in patent US10919885B2, “Compounds and uses thereof” (Yumanity Therapeutics, Inc., priority 2018, dated 2021).

Key:
[1] = target: human SCD1 (Homo sapiens (Human), UniProt O00767); assay: Yeast growth assay, strain expressing human SCD1 as the sole desaturase (reduced growth as surrogate for SCD inhibition); format: cell-based; details: yeast with OLE1 deleted expressing human SCD1 from a plasmid; growth read as OD600 after 40 h at 30° C.; top drug concentration 33.3 μM
Method in brief: (§1)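 Yeast lacking OLE1 depend on plasmid-borne human SCD1 or SCD5 and are tested in SD-Ura medium without oleic/palmitoleic acid or Tween.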

[2] = target: human SCD5 (Homo sapiens (Human), UniProt Q86SK9); assay: Yeast growth assay, strain expressing human SCD5 as the sole desaturase (reduced growth as surrogate for SCD inhibition); format: cell-based; details: yeast with OLE1 deleted expressing human SCD5 from a plasmid; growth read as OD600 after 40 h at 30° C.; top drug concentration 33.3 μM
Method in brief: as §1

Chain of human SCD1 (O00767 whole entry): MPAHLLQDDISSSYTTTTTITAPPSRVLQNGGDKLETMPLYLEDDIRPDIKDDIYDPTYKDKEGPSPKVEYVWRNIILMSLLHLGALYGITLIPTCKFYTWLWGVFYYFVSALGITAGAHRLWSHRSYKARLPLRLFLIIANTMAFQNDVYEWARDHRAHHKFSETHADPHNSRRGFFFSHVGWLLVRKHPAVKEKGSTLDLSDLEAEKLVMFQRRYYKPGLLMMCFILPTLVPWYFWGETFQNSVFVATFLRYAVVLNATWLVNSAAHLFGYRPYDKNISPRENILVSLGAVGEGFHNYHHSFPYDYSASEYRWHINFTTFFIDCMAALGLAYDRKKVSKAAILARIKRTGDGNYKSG
Chain of human SCD5 (Q86SK9 whole entry): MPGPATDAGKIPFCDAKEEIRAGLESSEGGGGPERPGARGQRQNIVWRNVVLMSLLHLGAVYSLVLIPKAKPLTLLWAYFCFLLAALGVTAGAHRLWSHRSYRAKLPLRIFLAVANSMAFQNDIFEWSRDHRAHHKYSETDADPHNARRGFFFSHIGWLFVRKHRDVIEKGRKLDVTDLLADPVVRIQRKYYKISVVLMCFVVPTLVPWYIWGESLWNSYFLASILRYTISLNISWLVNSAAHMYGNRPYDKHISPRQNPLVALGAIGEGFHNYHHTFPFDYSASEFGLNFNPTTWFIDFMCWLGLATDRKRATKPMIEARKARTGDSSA

IC50 [1] [µM]	IC50 [2] [µM]	SMILES
> 45	> 45	O=C(Nc1ccccc1)C1CCCN1C(=O)c1cc(-c2ccc3c(c2)OCO3)on1 (stereo not drawn) [Compound 455]
6.97	> 45	O=C(Nc1cnn(Cc2ccccc2)c1)c1cc(-c2ccns2)on1 [Compound 126]
> 45	> 45	CNC(=O)c1ccc(-c2cc(C(=O)N3CC(Cc4ccccc4)C3)no2)cc1 [Compound 230]
> 45	4.16	O=C(c1cc(-c2ccccc2)on1)N1CCC(Oc2ccccc2)CC1 [Compound 288, (4-phenoxy-1-piperidyl)-(5-phenylisoxazol-3-yl)methanone]
> 45	> 45	O=C(c1cc(-c2ccc3c(c2)OCO3)on1)N1CCCC1c1ccccc1F (stereo not drawn) [Compound 366]
> 45	> 45	N#Cc1cc(C(=O)Nc2cnn(Cc3cccc(F)c3)c2)no1 [Compound 169]
> 45	> 45	Cc1ccncc1Cn1cc(NC(=O)c2cc(-c3ccccc3F)on2)cn1 [Compound 172]
> 45	> 45	C=C(C)c1cc(C(=O)Nc2cnn(Cc3cc(F)ccc3C(F)(F)F)c2)no1 [Compound 84]
> 45	> 45	O=C(c1cc(-c2ccc3c(c2)OCO3)on1)N1CCCC1c1ncccc1Br (stereo not drawn) [Compound 447]
29	> 45	CC(=O)N1CCN(c2cc(C(=O)Nc3cnn(Cc4ccccc4)c3)no2)CC1 [Compound 184]
> 45	> 45	N#Cc1cc(F)cc(Cn2cc(NC(=O)c3cc(-c4ccccc4)on3)cn2)c1 [Compound 98]
> 45	> 45	O=C(NC1CCNC1)c1cc(-c2ccco2)on1 (stereo not drawn) [Compound 336]
> 45	> 45	COc1ccc(C2CCCN2C(=O)c2cc(-c3ccc4ncoc4c3)on2)cc1 (stereo not drawn) [Compound 401]
> 45	> 45	N#Cc1cccc(Cn2cc(NC(=O)c3cc(-c4ccccc4)on3)cn2)c1 [Compound 132]
> 45	> 45	C[S+]([O-])CCC(c1ccccc1)n1cc(NC(=O)c2cc(-c3ccccc3)on2)cn1 (stereo not drawn) [Compound 71]
> 45	> 45	CN(C)CCC(c1ccccc1)n1cc(NC(=O)c2cc(-c3ccccc3)on2)cn1 (stereo not drawn) [Compound 65]
> 45	3.8	C=C(C)c1cc(C(=O)N2CCC3(CCc4c(F)cccc4O3)CC2)no1 [Compound 324]
> 45	> 45	Cc1nnc(-c2cc(C(=O)Nc3cnn(Cc4cccc(F)c4)c3)no2)s1 [Compound 175]
3.1	20	O=C(Nc1cnn(Cc2cccc(F)c2)c1)c1cc(C2(O)CCC2)on1 [Compound 100]
0.28	1.4	O=C(c1cc(-c2ccco2)on1)N1CC(Oc2ccccc2)C1 [Compound 206, [5-(2-furyl)isoxazol-3-yl]-(3-phenoxyazetidin-1-yl)methanone]
> 45	> 45	O=C(c1cc(-c2ccc3c(c2)OCO3)on1)N1CCCC1c1ccccn1 (stereo not drawn) [Compound 361]

IC50 [1] [µM]	IC50 [2] [µM]	SMILES
> 45	> 45	O=C(Nc1cnn(Cc2ccccc2)c1)c1cc(-c2ccccc2)no1 [Compound 123]
> 45	13	O=C(c1noc2c1CCCC2)N1CC(Cc2ccccc2)C1 [Compound 253, 3-(3-benzylazetidine-1-carbonyl)-4,5,6,7-tetrahydro-1,2-benzoxazole]
> 45	> 45	COc1ccc(Cn2cc(NC(=O)c3cc(-c4ccccc4)on3)cn2)cc1 [Compound 109]
> 45	> 45	O=C(Nc1cnn(Cc2ccccc2)n1)c1cc(-c2ccccc2)on1 [Compound 52]
> 45	2.6	O=C(c1cc(-c2ccccc2)on1)N1CCC(c2ccccc2)C1 (stereo not drawn) [Compound 330]
> 45	> 45	Cc1nn(C)c2cc(-c3cc(C(=O)N4CCCC4c4cccnn4)no3)ccc12 (stereo not drawn) [Compound 462]
> 45	> 45	O=C(c1cc(-c2ccc3c(c2)OCO3)on1)N1CCN(c2ccc(F)cc2)CC1 [Compound 279]
> 45	> 45	COc1ccc(-c2cc(C(=O)N3CCCC3c3ccc(OC)cc3)no2)cc1 (stereo not drawn) [Compound 376]
> 45	> 45	Nc1cc(C(=O)Nc2cnn(Cc3ccccc3)c2)no1 [Compound 192]
> 45	> 45	O=C(c1cc(-c2ccc3c(c2)OCO3)on1)N1CCCC1c1ncccc1F (stereo not drawn) [Compound 457]
> 45	> 45	COc1ccc(C2CCCN2C(=O)c2cc(-c3ccc(F)c(F)c3)on2)cc1 (stereo not drawn) [Compound 378]
0.15	2.7	CC(C)(C)c1cc(C(=O)Nc2cnn(Cc3ccccc3)c2)no1 [Compound 118, N-(1-benzyl-1H-pyrazol-4-yl)-5-(tert-butyl)isoxazole-3-carboxamide]
> 45	> 45	O=C(c1cc(-c2ccc3c(c2)OCO3)on1)N1CC(Nc2ccccc2)C1 [Compound 221]
> 45	> 45	O=C(Nc1cnn(Cc2ccc(Cl)c(Cl)c2)c1)c1cc(-c2ccco2)on1 [Compound 29]
> 45	> 45	O=C(Nc1cn(Cc2ccccc2)nc1C(F)(F)F)c1cc(-c2ccccc2)on1 [Compound 82]
> 45	> 45	O=C(c1cc(-c2ccc3c(c2)OCO3)on1)N1CCCC1c1ccc(F)cn1 (stereo not drawn) [Compound 272]
> 45	> 45	COc1ccc(C2CCCN2C(=O)c2cc(-c3ccc(C(F)(F)F)cc3)on2)cc1 (stereo not drawn) [Compound 381]
1.83	> 45	Cc1nn(Cc2ccccc2)cc1NC(=O)c1cc(-c2ccccc2)on1 [Compound 66]
> 45	33.1	O=C(c1cc(-c2ccccn2)on1)N(Cc1ccc(F)c(F)c1)c1cnn(Cc2ccc(F)c(F)c2)c1 [Compound 62, N-(3,4-difluorobenzyl)-N-(1-(3,4-difluorobenzyl)-1H-pyrazol-4-yl)-5-(pyridin-2-yl)isoxazole-3-carboxamide]
> 45	> 45	Cn1cc(NC(=O)c2cc(-c3ccco3)on2)cn1 [Compound 10]
> 45	> 45	O=C(Nc1cnn(Cc2ccccc2Cl)c1)c1cc(-c2cccc3cn(C4COC4)nc23)on1 [Compound 92]

IC50 [1] [µM]	IC50 [2] [µM]	SMILES
> 45	> 45	CSCCC(c1ccccc1)n1cc(NC(=O)c2cc(-c3ccccc3)on2)cn1 (stereo not drawn) [Compound 70]
> 45	> 45	O=C(c1cc(-c2ccc3c(c2)OCO3)on1)N1CCCc2c(F)cccc21 [Compound 263]
> 45	> 45	COc1ccc(C2CCCN2C(=O)c2cc(-c3ccc4ocnc4c3)on2)cc1 (stereo not drawn) [Compound 400]
> 45	41.7	O=C(c1noc2cc(Br)ccc12)N1CCC[C@H]1c1ccccc1 [Compound 449]
5.7	7	O=C(Nc1cnn(Cc2ccccc2)c1)c1cc(-c2ccncc2)on1 [Compound 124, N-(1-benzyl-1H-pyrazol-4-yl)-5-(pyridin-4-yl)isoxazole-3-carboxamide]
> 45	> 45	O=C(Nc1cn(Cc2ccccc2)nn1)c1cc(-c2ccccc2)on1 [Compound 44]
> 45	5.16	Cn1cc2ccc(-c3cc(C(=O)N4CC(c5ccccc5)C4)no3)cc2n1 [Compound 235, (5-(2-methyl-2H-indazol-6-yl)isoxazol-3-yl)(3-phenylazetidin-1-yl)methanone]
> 45	> 45	O=C(c1cc(-c2ccccc2)on1)N1CCC(c2cccnc2)CC1 [Compound 322]
> 45	> 45	COc1ccc(C2CCCN2C(=O)c2cc(-c3ccc4c(c3)OCO4)on2)nc1 (stereo not drawn) [Compound 145]
> 45	9	O=C(c1cc(-c2ccccn2)on1)N1CCC(c2cccc(F)c2)C1 (stereo not drawn) [Compound 352]
> 45	> 45	CC(c1ccccc1)n1cc(NC(=O)c2cc(-c3ccccc3)on2)cn1 (stereo not drawn) [Compound 51]
> 45	7.35	O=C(c1cc(-c2ccccc2C(F)(F)F)on1)N1CCC(c2ccccc2)C1 (stereo not drawn) [Compound 346]
> 45	> 45	CNC(=O)c1cccc(-c2cc(C(=O)N3CCC(c4ccccc4)CC3)no2)c1 [Compound 303]
> 45	> 45	O=C(c1cc(-c2ccc3c(c2)OCO3)on1)N1CC2(C1)CN(c1ccccc1)C2 [Compound 222]
> 45	> 45	CC(C)(C)OC(=O)N1CC2(C1)CN(C(=O)c1cc(-c3ccccc3)on1)C2 [Compound 344]
> 45	> 45	N#Cc1ccc(-c2cc(C(=O)N3CCC[C@H]3c3ccccc3)no2)cc1 [Compound 404]
> 45	> 45	O=C(Nc1cnn(Cc2ccc(C(F)(F)F)cc2)c1)c1cc(-c2ccco2)on1 [Compound 16]
> 45	> 45	Cc1nnc(-c2cc(C(=O)Nc3cnn(Cc4ccccc4)c3)no2)o1 [Compound 165]
> 45	> 45	O=C(Nc1cnn(Cc2ccccc2)c1)c1cc(-c2cccc(F)c2)on1 [Compound 144]

SMILES	IC50 [1] [µM]	IC50 [2] [µM]
O=C(c1cc(-c2ccccc2)on1)N1CCC2(CCNC2)C1 (stereo not drawn) [Compound 340]	> 45	> 45
CN1CCC2(CCN(C(=O)c3cc(-c4ccccc4)on3)C2)C1 (stereo not drawn) [Compound 342]	> 45	> 45
